Data as given in patent US12679822B2, “Alkenyl pyrimidine compound, preparation method therefor, and application thereof” (Hongyun Biotech Co., Ltd., priority 2020, dated 2026).

Legend:
Format in all cases: cell-based
[1] = molecular target: BaF3 cell lines stably transfected with kinase EGFR Del (Homo sapiens, UniProt P00533, cells depend on it, form not given); assay: Growth inhibition of BaF3 cell line stably transfected with kinase EGFR Del (MTS); conditions: 48 h, read-out: growth inhibitory activity IC50, Del
Protocol: (§1) Biological Activity Assay: Growth Inhibitory Activity of Compounds on Cell Lines Stably Transfected with Kinase
(§2) The activity of compounds against various mutants of kinase EGFR was evaluated by their effect of inhibiting growth of BaF3 cell lines stably transfected with kinase. The specific test method was given as follows:
(§3) 1) Culture medium: DMEM (Dulbecco's modified eagle medium) or RPMI 1640 (containing 10% fetal bovine serum, 100 μg/mL ampicillin, 100 μg/mL streptomycin).
(§4) 2) Reagent: MTS reaction solution (containing 2 mg/mL of MTS [3-(4,5-di methylthiazol-2-yl)-5-(3-carboxymethoxyphenyl)-2-(4-sulfophenyl)-2H-tetrazolium, inner Salt]; 100 μg/mL of PES (phenazine […])).
(§5) 3) Compound test: cells were incubated into a 96-well culture plate, the volume of cytosol was 90 μL, and then 10 μL of the compound at each gradient concentration was added. That is, the highest concentration was 10 μM, which was diluted stepwise by ⅓, and 8 concentration points were set in total; 0.1% DMSO (dimethyl sulfoxide) was contained in the system. The cell plate with uniformly mixed compound was cultured in a cell culture incubator (37° C.; 5% […]) for 48 h, then 20 μL of MTS reaction solution was added, uniformly mixed and incubated in the cell culture incubator (37° C.; 5% CO2) for 1-4 h; OD values at 490 nm were measured by a microplate reader (VARIOSKAN FLASH, Thermo). Two parallels were set in each group of experiments, with 0.1% (a final concentration) DMSO as a negative control, and a culture medium without cells and compounds as a blank control. The cell growth inhibition rate was calculated by the following formula: Cell growth inhibition rate %=1−(ODexperimental group−ODblank group)/(ODnegative group−ODblank group)×100%.
(§6) 4) IC50 calculation: The semi-inhibitory concentration of the compounds acting on cells was calculated using GradPad Prism 5 software according to the measured cell growth inhibition rate.

[2] = molecular target: BaF3 cell lines stably transfected with kinase EGFR Del/T790M (Homo sapiens, UniProt P00533, T790M, cells depend on it, form not given); assay: Growth inhibition of BaF3 cell line stably transfected with kinase EGFR Del/T790M (MTS); conditions: 48 h, read-out: growth inhibitory activity IC50, Del/T790M
BaF3 cell lines stably transfected with kinase EGFR Del/T790M, sequence (P00533 with tags, fused parts or gaps DEL746-750/T790M, form open): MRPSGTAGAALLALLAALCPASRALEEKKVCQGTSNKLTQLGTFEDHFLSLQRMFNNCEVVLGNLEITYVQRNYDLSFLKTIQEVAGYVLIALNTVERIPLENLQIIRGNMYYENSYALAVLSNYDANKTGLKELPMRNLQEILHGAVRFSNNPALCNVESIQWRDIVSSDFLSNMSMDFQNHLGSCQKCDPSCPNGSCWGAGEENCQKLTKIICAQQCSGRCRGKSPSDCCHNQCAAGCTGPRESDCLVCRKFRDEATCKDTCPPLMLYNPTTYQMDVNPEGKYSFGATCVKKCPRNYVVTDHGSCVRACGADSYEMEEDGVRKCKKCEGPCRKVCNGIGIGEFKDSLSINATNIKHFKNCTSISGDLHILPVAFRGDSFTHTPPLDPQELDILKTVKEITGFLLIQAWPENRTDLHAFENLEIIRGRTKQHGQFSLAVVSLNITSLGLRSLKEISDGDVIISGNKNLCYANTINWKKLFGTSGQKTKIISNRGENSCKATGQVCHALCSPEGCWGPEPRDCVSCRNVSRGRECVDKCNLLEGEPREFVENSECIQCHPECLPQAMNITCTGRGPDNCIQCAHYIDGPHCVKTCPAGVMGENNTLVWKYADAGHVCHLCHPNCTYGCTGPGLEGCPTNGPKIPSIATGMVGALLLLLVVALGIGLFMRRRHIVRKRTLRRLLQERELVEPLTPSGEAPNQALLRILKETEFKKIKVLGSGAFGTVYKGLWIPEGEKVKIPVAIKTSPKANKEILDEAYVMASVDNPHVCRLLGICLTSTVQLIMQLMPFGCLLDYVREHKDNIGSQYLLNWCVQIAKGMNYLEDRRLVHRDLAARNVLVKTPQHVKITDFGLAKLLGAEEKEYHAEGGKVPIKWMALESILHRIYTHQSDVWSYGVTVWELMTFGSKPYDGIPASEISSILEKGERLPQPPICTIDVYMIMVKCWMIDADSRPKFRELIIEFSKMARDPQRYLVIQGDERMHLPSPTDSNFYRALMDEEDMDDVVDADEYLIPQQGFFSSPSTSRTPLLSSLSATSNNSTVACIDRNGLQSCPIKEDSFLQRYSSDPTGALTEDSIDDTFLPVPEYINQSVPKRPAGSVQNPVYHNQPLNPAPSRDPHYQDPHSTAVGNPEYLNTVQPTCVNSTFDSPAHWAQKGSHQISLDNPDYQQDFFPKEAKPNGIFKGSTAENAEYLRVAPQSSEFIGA
Protocol: as §1, §2, §3, §4, §5, §6

[3] = molecular target: BaF3 cell lines stably transfected with kinase EGFR L858R/T790M/C797S (Homo sapiens, UniProt P00533, T790M/C797S/L858R, cells depend on it); assay: Growth inhibition of BaF3 cell line stably transfected with kinase EGFR L858R/T790M/C797S (MTS); conditions: 48 h, read-out: growth inhibitory activity IC50, L858R/T790M/C797S
BaF3 cell lines stably transfected with kinase EGFR L858R/T790M/C797S, sequence (P00533 whole entry T790M/C797S/L858R): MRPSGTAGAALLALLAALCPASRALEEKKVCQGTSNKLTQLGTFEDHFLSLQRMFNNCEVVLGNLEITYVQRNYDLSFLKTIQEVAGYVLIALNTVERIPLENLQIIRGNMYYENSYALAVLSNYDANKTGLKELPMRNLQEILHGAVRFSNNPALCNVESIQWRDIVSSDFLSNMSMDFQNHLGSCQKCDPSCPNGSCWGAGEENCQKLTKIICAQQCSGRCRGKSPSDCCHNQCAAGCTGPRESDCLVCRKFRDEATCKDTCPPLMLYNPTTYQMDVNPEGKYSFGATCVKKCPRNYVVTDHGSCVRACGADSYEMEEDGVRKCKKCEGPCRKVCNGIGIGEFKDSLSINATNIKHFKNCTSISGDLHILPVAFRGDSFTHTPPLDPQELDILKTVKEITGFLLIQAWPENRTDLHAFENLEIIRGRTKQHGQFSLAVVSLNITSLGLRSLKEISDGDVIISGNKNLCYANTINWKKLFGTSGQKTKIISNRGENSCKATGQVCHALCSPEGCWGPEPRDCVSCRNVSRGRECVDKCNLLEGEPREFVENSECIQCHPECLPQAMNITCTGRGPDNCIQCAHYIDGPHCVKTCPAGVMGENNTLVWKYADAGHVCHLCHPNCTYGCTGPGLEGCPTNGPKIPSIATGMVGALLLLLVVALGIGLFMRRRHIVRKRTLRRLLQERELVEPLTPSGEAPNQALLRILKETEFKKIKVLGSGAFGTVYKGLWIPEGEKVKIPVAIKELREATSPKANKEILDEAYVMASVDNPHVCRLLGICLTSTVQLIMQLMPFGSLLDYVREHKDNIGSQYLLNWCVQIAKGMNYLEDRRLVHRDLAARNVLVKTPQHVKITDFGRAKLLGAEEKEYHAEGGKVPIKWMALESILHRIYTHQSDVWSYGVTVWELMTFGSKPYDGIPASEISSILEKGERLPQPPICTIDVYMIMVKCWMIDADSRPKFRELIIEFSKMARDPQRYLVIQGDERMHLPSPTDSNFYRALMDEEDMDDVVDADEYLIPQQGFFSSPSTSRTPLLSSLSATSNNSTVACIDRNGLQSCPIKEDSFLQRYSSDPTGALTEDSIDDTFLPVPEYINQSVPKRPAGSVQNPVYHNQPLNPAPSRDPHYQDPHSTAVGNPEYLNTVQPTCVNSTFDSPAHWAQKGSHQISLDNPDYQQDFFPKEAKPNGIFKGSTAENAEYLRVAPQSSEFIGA
Protocol: as §1, §2, §3, §4, §5, §6

[4] = molecular target: BaF3 cell lines stably transfected with kinase EGFR Del/T790M/C797S (Homo sapiens, UniProt P00533, T790M/C797S, cells depend on it, form not given); assay: Growth inhibition of BaF3 cell line stably transfected with kinase EGFR Del/T790M/C797S (MTS); conditions: 48 h, read-out: growth inhibitory activity IC50, Del/T790M/C797S
BaF3 cell lines stably transfected with kinase EGFR Del/T790M/C797S, sequence (P00533 with tags, fused parts or gaps DEL746-750/T790M/C797S, form open): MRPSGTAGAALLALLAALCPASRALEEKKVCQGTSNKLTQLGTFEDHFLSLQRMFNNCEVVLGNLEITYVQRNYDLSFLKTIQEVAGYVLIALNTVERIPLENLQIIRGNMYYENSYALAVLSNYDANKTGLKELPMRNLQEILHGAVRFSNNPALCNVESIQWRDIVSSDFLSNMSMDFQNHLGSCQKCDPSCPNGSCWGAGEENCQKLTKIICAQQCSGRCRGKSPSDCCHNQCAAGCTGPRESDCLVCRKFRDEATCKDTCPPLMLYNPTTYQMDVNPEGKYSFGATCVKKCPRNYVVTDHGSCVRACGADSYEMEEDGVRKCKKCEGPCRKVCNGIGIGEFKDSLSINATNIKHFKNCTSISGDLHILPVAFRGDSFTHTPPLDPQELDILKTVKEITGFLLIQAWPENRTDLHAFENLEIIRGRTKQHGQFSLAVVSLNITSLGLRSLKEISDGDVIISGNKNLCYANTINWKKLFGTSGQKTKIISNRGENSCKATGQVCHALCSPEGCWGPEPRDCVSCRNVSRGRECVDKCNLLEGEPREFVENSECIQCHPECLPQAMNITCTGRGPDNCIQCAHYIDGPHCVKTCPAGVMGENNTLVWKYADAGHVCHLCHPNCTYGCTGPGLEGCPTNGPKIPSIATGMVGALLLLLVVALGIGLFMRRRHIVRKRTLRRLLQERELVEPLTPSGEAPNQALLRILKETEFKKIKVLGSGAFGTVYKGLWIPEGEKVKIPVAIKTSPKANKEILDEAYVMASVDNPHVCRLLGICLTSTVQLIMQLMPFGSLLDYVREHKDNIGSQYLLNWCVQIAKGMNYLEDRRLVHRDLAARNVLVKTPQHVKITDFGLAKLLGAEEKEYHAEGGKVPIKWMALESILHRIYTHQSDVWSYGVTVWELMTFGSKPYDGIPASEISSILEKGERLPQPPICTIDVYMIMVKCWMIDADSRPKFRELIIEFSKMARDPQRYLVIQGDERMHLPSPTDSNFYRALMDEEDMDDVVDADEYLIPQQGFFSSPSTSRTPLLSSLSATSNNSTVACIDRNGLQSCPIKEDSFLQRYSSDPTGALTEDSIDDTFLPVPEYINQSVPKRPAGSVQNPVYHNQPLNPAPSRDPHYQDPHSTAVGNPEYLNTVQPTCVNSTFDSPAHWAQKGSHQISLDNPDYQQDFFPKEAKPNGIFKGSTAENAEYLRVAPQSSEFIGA
Protocol: as §1, §2, §3, §4, §5, §6

[5] = molecular target: BaF3 cell lines stably transfected with kinase EGFR L858R/T790M (Homo sapiens, UniProt P00533, T790M/L858R, cells depend on it); assay: Growth inhibition of BaF3 cell line stably transfected with kinase EGFR L858R/T790M (MTS); conditions: 48 h, read-out: growth inhibitory activity IC50, L858R/T790M
Protocol: as §1, §2, §3, §4, §5, §6

[6] = molecular target: BaF3 cell lines stably transfected with kinase EGFR L858R (Homo sapiens, UniProt P00533, L858R, cells depend on it); assay: Growth inhibition of BaF3 cell line stably transfected with kinase EGFR L858R (MTS); conditions: 48 h, read-out: growth inhibitory activity IC50, L858R
BaF3 cell lines stably transfected with kinase EGFR L858R, sequence (P00533 whole entry L858R): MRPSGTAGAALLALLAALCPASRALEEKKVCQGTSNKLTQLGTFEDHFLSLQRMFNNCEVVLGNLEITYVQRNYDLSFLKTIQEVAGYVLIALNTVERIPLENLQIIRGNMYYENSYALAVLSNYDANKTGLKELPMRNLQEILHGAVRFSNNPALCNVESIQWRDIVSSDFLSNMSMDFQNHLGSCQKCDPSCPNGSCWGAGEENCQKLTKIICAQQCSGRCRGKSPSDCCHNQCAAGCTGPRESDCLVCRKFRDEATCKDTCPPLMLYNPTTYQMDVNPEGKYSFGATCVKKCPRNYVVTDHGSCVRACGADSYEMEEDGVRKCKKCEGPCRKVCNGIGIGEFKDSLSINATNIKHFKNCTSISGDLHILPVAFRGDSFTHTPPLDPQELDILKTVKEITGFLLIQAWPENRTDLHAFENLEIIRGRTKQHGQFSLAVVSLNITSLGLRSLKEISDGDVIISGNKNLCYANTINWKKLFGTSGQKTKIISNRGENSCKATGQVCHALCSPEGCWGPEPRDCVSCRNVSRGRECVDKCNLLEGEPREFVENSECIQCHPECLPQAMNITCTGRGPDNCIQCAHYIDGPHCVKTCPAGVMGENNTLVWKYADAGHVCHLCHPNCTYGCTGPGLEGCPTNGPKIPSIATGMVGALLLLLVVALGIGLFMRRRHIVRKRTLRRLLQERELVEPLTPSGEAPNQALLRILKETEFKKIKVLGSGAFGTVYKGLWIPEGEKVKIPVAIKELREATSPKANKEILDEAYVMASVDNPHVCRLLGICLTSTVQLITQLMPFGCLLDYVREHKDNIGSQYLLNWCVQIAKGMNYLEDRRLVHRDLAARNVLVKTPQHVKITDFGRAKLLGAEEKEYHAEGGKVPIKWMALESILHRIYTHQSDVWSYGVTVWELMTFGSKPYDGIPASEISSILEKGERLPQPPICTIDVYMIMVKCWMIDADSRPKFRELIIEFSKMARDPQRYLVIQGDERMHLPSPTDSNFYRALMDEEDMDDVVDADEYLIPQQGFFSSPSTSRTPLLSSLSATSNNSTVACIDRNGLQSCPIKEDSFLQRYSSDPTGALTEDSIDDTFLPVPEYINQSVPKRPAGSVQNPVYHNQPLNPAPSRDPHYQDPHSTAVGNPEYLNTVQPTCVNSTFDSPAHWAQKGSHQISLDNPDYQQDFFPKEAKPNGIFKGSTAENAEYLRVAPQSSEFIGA
Protocol: as §1, §2, §3, §4, §5, §6

Row | Compound | GI50 [1] [nM] | GI50 [2] [nM] | GI50 [3] [nM] | GI50 [4] [nM] | GI50 [5] [nM] | GI50 [6] [nM]
1 | CCc1cc(Nc2ncc(/C=C/C3CC3)c(Nc3ccc4nccnc4c3N(C)S(C)(=O)=O)n2)c(OC)cc1N1CCC(N2CCN(C)CC2)CC1 [II-28] | ≤ 50 | 500 to 2500 | 500 to 2500 | 500 to 2500 | 500 to 2500 | 50 to 500
2 | CCc1cc(Nc2ncc(/C=C/C3CC3)c(Nc3ccc4nccnc4c3P(C)(C)=O)n2)c(OC)cc1N1CCC(N2CCN(C)CC2)CC1 [Compound I-11] | ≤ 50 | 50 to 500 | 50 to 500 | 50 to 500 | 50 to 500 | ≤ 50
3 | C=Cc1cnc(Nc2cc(Cc3ccccc3)c(N3CCC(N4CCN(C)CC4)CC3)cc2OC)nc1Nc1ccc2nccnc2c1N(C)S(C)(=O)=O [II-19] | 500 to 2500 | 50 to 500 | 50 to 500 | ≤ 50 | 500 to 2500 | 500 to 2500
4 | C=Cc1cnc(Nc2cc(CC)c(N3CCC(C(C)C)C3)cc2OC)nc1Nc1ccc2nccnc2c1P(C)(C)=O (stereo not drawn) [Compound I-3] | 50 to 500 | ≤ 50 | ≤ 50 | ≤ 50 | 50 to 500 | ≤ 50
5 | C=Cc1cnc(Nc2cc(CC)c(N3CCC(N(C)C)C3)cc2OC)nc1Nc1ccc2nccnc2c1S(=O)(=O)NC (stereo not drawn) [IV-14] | 50 to 500 | 50 to 500 | 50 to 500 | 50 to 500 | 50 to 500 | 50 to 500
6 | C=Cc1cnc(Nc2ccc(N3CCC(N4CCN(C)CC4)CC3)c(CC)c2)nc1Nc1ccc2nccnc2c1S(C)(=O)=O [III-14] | 50 to 500 | 50 to 500 | 50 to 500 | 500 to 2500 | 50 to 500 | 50 to 500
7 | C=Cc1cnc(Nc2cc(C)c(N3CCC(N4CCN(C)CC4)CC3)cc2OC)nc1Nc1ccc2nccnc2c1N(C)S(C)(=O)=O [II-15] | ≤ 50 | ≤ 50 | ≤ 50 | ≤ 50 | ≤ 50 | ≤ 50
8 | C=Cc1cnc(Nc2cnn(CC)c2)nc1Nc1ccc2nccnc2c1N(C)S(C)(=O)=O [II-66] | 500 to 2500 | 500 to 2500 | 500 to 2500 | 50 to 500 | 500 to 2500 | 500 to 2500
9 | C=Cc1cnc(Nc2cc(CC)c(N3CCC(N4CCN(C)CC4)CC3)nc2OC)nc1Nc1ccc2nccnc2c1P(C)(C)=O [Compound I-5] | ≤ 50 | ≤ 50 | ≤ 50 | ≤ 50 | ≤ 50 | ≤ 50
10 | C=Cc1cnc(Nc2cc(C)c(N3CCC(N4CCN(C)CC4)CC3)cc2OC)nc1Nc1ccc2nccnc2c1P(C)(C)=O [Compound I-9] | ≤ 50 | ≤ 50 | ≤ 50 | ≤ 50 | ≤ 50 | ≤ 50
11 | C=Cc1cnc(Nc2cc(CC)c(N3CCC(N4CCN(C)CC4)CC3)cc2OC)nc1Nc1ccc2nccnc2c1N(C)S(C)(=O)=O [II-53] | 50 to 500 | 50 to 500 | ≤ 50 | ≤ 50 | 50 to 500 | 50 to 500
12 | C=Cc1cnc(Nc2cc(CC)c(N3CCC4(CC3)CC(N(C)C)C4)cc2OC)nc1Nc1ccc2nccnc2c1N(C)S(C)(=O)=O [II-55] | 50 to 500 | 50 to 500 | 50 to 500 | 50 to 500 | 50 to 500 | 50 to 500
13 | C=C(C)c1cnc(Nc2cc(CC)c(N3CCC(N4CCN(C)CC4)CC3)cc2OC)nc1Nc1ccc2nccnc2c1P(C)(C)=O [Compound I-15] | ≤ 50 | ≤ 50 | ≤ 50 | ≤ 50 | ≤ 50 | ≤ 50
14 | C=Cc1cnc(Nc2cc(C)c(N3CCC(N4CCN(C)CC4)CC3)cc2OC)nc1Nc1ccc2nccnc2c1S(=O)(=O)NC [IV-2] | 50 to 500 | 50 to 500 | 50 to 500 | 50 to 500 | 50 to 500 | 50 to 500
